Values after ≈ are worked out from the molar mass of the structure shown. Read-outs that look alike come from different tables or passages of the source.
What was measured:
M. hyopneumoniae LABER = test: MIC against Mycoplasma in vitro (Friis broth with agarose); assay type: cell-based; details: Mesomycoplasma hyopneumoniae, 144 h
M. hyopneumoniae TAM 6N = test: as above; assay type: cell-based; details: Mesomycoplasma hyopneumoniae, TAM6N, 144 h
[1] = tested on: M. bovigenitalium ATCC 14173; test: as above; assay type: cell-based; details: 144 h
[2] = tested on: Staph. aureus B4 (pen. resistant); test: MIC against veterinary bacteria in vitro (Diagnostic Sensitivity Test Agar); details: Staphylococcus aureus, 18 h
Procedure: (§2) The activity of the normonyl derivatives of the Examples against various veterinarily important bacteria, was assayed in vitro using two-fold serial dilutions in Diagnostic Sensitivity Test Agar inoculated with 10^4 organisms.

[3] = tested on: Strep. suis (group D) SPS11; test: as above; details: Streptococcus suis, 18 h
Procedure: as §2

S. typhimurium S18 = test: as above; details: Salmonella enterica, 18 h
Procedure: as §2

[4] = tested on: M. hyopneumoniae PW/C/210; test: MIC against Mycoplasma in vitro (Friis broth with agarose); assay type: cell-based; details: Mesomycoplasma hyopneumoniae, 144 h
Strep. agalactiae SPA1 = test: MIC against veterinary bacteria in vitro (Diagnostic Sensitivity Test Agar); details: Streptococcus agalactiae, SPA1, 18 h
Procedure: as §2

S. dublin S7 = test: as above; details: Salmonella enterica, S7, 18 h
Procedure: as §2

E. coli NCTC 10418 = test: as above; details: Escherichia coli, NCTC10418, 18 h
Procedure: as §2

M. dispar NCTC 10125 = test: MIC against Mycoplasma in vitro (Friis broth with agarose); assay type: cell-based; details: 144 h
Bord. bronchiseptica B09 = test: MIC against veterinary bacteria in vitro (Diagnostic Sensitivity Test Agar); details: Bordetella bronchiseptica, B09, 18 h
Procedure: as §2

M. hyopneumoniae NB12 = test: MIC against Mycoplasma in vitro (Friis broth with agarose); assay type: cell-based; details: Mesomycoplasma hyopneumoniae
M. hyopneumoniae HK (2) = test: as above; assay type: cell-based; details: Mesomycoplasma hyopneumoniae, 144 h
Staph. aureus Oxford [5] = test: MIC against human bacteria in vitro (nutrient agar, chocolated horse blood); assay type: cell-based; details: Staphylococcus aureus
Outline: (§1)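 Agar dilution series; medium supplemented with 5% chocolated horse blood; MIC taken from the dilution series.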

[6] = tested on: Strep. pyogenes R80/421-A; test: as above; assay type: cell-based; details: Streptococcus pyogenes
Outline: as §1

E. coli ESS = test: as above; assay type: cell-based; details: Escherichia coli
Outline: as §1

[7] = tested on: Haemophilus influenzae Q1; test: as above; assay type: cell-based
Outline: as §1

[8] = tested on: Corynebacterium xerosis 9755; test: as above; assay type: cell-based
Outline: as §1

Strep. pneumoniae CN33 = test: as above; assay type: cell-based; details: Streptococcus pneumoniae
Outline: as §1

K. aerogenes A = test: as above; assay type: cell-based; details: Klebsiella aerogenes
Outline: as §1

[9] = tested on: Neisseria catarrhalis 1502; test: as above; assay type: cell-based
Outline: as §1

[10] = tested on: Haemophilus influenzae Wy21; test: as above; assay type: cell-based
Outline: as §1

Strep. dysgalactiae SPD1 = test: MIC against veterinary bacteria in vitro (Diagnostic Sensitivity Test Agar); details: Streptococcus dysgalactiae, SPD1, 18 h
Procedure: as §2

Past. haemolytica PA5 = test: as above; details: Mannheimia haemolytica, PA5, 18 h
Procedure: as §2

[11] = tested on: M. hyosynoviae ATCC 25591; test: MIC against Mycoplasma in vitro (Friis broth with agarose); assay type: cell-based; details: 144 h
Staph. aureus Oxford [12] = test: MIC against veterinary bacteria in vitro (Diagnostic Sensitivity Test Agar); details: Staphylococcus aureus, 18 h
Procedure: as §2

[13] = Corynebacterium xerosis, 9755, 18 h
[14] = Haemophilus influenzae, WY21, 18 h
[15] = M. hyopneumoniae TAM 6N, 6 days at 37° C, read-out: MIC
[16] = M. hyopneumoniae PW/C/210, 6 days at 37° C, read-out: MIC
[17] = 144 h, M. hyopneumoniae NB12, 6 days at 37° C, read-out: MIC
[18] = M. hyopneumoniae HK (2), 6 days at 37° C, read-out: MIC
[19] = human, Staph. aureus Oxford, 18 hours at 37° C, read-out: MIC
[20] = human, Strep. pyogenes R80/421-A, 18 hours at 37° C, read-out: MIC
[21] = human, E. coli ESS, 18 hours at 37° C, read-out: MIC
[22] = human, Haemophilus influenzae Q1, 18 hours at 37° C, read-out: MIC
[23] = human, Corynebacterium xerosis 9755, 18 hours at 37° C, read-out: MIC
[24] = human, Strep. pneumoniae CN33, 18 hours at 37° C, read-out: MIC
[25] = human, K. aerogenes A, 18 hours at 37° C, read-out: MIC
[26] = human, Neisseria catarrhalis 1502, 18 hours at 37° C, read-out: MIC
[27] = human, Haemophilus influenzae Wy21, 18 hours at 37° C, read-out: MIC
[28] = M. hyosynoviae ATCC 25591, 6 days at 37° C, read-out: MIC
[29] = M. hyopneumoniae LABER, 6 days at 37° C, read-out: MIC
[30] = M. bovigenitalium ATCC 14173, 6 days at 37° C, read-out: MIC
[31] = M. dispar NCTC 10125, 6 days at 37° C, read-out: MIC

Row | SMILES | MIC [2] | MIC [3] | MIC (S. typhimurium S18) | MIC (Strep. agalactiae SPA1) | MIC (S. dublin S7) | MIC (E. coli NCTC 10418) | MIC (Bord. bronchiseptica B09) | MIC (Strep. dysgalactiae SPD1) | MIC (Past. haemolytica PA5) | MIC (M. hyopneumoniae TAM 6N; [15]) | MIC [4, 16] | MIC (M. hyopneumoniae NB12; [17]) | MIC (Staph. aureus Oxford [12]) | MIC (Staph. aureus Oxford [5]; [19]) | MIC [6, 20] | MIC (E. coli ESS; [21]) | MIC [8, 23] | MIC (Strep. pneumoniae CN33; [24]) | MIC (K. aerogenes A; [25]) | MIC [11, 28] | other results
1 | CC(=CC(=O)NN)CC1OCC(CC2OC2C(C)C(C)O)C(O)C1O (centres unmarked) [Example 9, Monohydrazide A] | 80 µg/mL (≈ 223 µM) | > 80 µg/mL | > 80 µg/mL | > 80 µg/mL | > 80 µg/mL | > 80 µg/mL | > 80 µg/mL | > 80 µg/mL | 40 µg/mL (≈ 112 µM) |  |  |  |  |  |  |  |  |  |  |  | MIC (M. hyopneumoniae LABER): 5 µg/mL (≈ 13.9 µM); MIC (M. hyopneumoniae TAM 6N): 10 µg/mL (≈ 27.9 µM); MIC [1]: 0.5 µg/mL (≈ 1.39 µM); MIC [4]: 5 µg/mL (≈ 13.9 µM); MIC (M. dispar NCTC 10125): 2.5 µg/mL (≈ 6.97 µM); MIC (M. hyopneumoniae NB12; NB12, 144 h): 10 µg/mL (≈ 27.9 µM); MIC (M. hyopneumoniae HK (2)): 10 µg/mL (≈ 27.9 µM); MIC (Staph. aureus Oxford [5]; 18 h): 100 µg/mL (≈ 279 µM); MIC ([6]; R80/421A, 18 h): 100 µg/mL (≈ 279 µM); MIC (E. coli ESS; 18 h): ≥ 100 µg/mL; MIC ([7]; Haemophilus influenzae, Q1, 18 h): 2.5 µg/mL (≈ 6.97 µM); MIC [8, 13]: > 100 µg/mL; MIC (Strep. pneumoniae CN33; CN33, 18 h): ≥ 100 µg/mL; MIC (K. aerogenes A; 18 h): > 100 µg/mL; MIC ([9]; Neisseria, 1502, 18 h): 2.5 µg/mL (≈ 6.97 µM); MIC [10, 14]: 2.5 µg/mL (≈ 6.97 µM); MIC [11]: 10 µg/mL (≈ 27.9 µM)
2 | CC(=Cc1nnnn1Cc1ccc([N+](=O)[O-])cc1)CC1OCC(CC2OC2C(C)C(C)O)C(O)C1O (centres unmarked) [Example 12, 1-(p-Nitrobenzyl)-5-(1-normon-2-yl)tetrazole A] | > 80 µg/mL | > 80 µg/mL | > 80 µg/mL | > 80 µg/mL | > 80 µg/mL | > 80 µg/mL | > 80 µg/mL | > 80 µg/mL | > 80 µg/mL | 5 µg/mL (≈ 9.93 µM) | 2.5 µg/mL (≈ 4.96 µM) | 5 µg/mL (≈ 9.93 µM) | > 80 µg/mL | 100 µg/mL (≈ 199 µM) | 50 µg/mL (≈ 99.3 µM) | 100 µg/mL (≈ 199 µM) | ≥ 100 µg/mL | 100 µg/mL (≈ 199 µM) | > 100 µg/mL | 2.5 µg/mL (≈ 4.96 µM) | MIC (M. dispar NCTC 10125): 1 µg/mL (≈ 1.99 µM); MIC (M. hyopneumoniae HK (2); [18]): 5 µg/mL (≈ 9.93 µM); MIC [7, 22]: 1 µg/mL (≈ 1.99 µM); MIC [9, 26]: 10 µg/mL (≈ 19.9 µM); MIC [10, 27]: 2.5 µg/mL (≈ 4.96 µM)
3 | COC(=O)CCCCCCCCn1nnnc1C=C(C)CC1OCC(CC2OC2C(C)C(C)O)C(O)C1O (centres unmarked) [Example 13, 1-(8-Methoxycarbonyloctyl)-5-(1-normon-2-yl)-1H-tetrazole A] | > 80 µg/mL | > 80 µg/mL | > 80 µg/mL | > 80 µg/mL | > 80 µg/mL | > 80 µg/mL | 80 µg/mL (≈ 149 µM) | > 80 µg/mL | > 80 µg/mL | > 10 µg/mL | > 10 µg/mL | > 10 µg/mL | 40 µg/mL (≈ 74.3 µM) | > 64 µg/mL | > 64 µg/mL | > 64 µg/mL | > 64 µg/mL | > 64 µg/mL | > 64 µg/mL | > 10 µg/mL | MIC (M. hyopneumoniae LABER; [29]): > 10 µg/mL; MIC [1, 30]: 5 µg/mL (≈ 9.28 µM); MIC (M. dispar NCTC 10125; [31]): > 10 µg/mL; MIC (M. hyopneumoniae HK (2); [18]): > 10 µg/mL; MIC [9, 26]: 64 µg/mL (≈ 119 µM); MIC [10, 27]: 16 µg/mL (≈ 29.7 µM)
4 | CC(=Cc1nnc(-c2ccccc2)o1)CC1OCC(CC2OC2C(C)C(C)O)C(O)C1O (centres unmarked) [Example 1, 2-(1-Normon-2-yl)-5-phenyl-1,3,4-oxadiazole A] | 5 µg/mL (≈ 11.2 µM) | 80 µg/mL (≈ 180 µM) | > 80 µg/mL | 40 µg/mL (≈ 90 µM) | > 80 µg/mL | > 80 µg/mL | 40 µg/mL (≈ 90 µM) | 10 µg/mL (≈ 22.5 µM) | 10 µg/mL (≈ 22.5 µM) | 5 µg/mL (≈ 11.2 µM) | 2.5 µg/mL (≈ 5.62 µM) | 2.5 µg/mL (≈ 5.62 µM) | 5 µg/mL (≈ 11.2 µM) | 10 µg/mL (≈ 22.5 µM) |  | 10 µg/mL (≈ 22.5 µM) |  |  |  | 1 µg/mL (≈ 2.25 µM) | MIC (M. hyopneumoniae LABER; [29]): 2.5 µg/mL (≈ 5.62 µM); MIC [1]: 0.1 µg/mL (≈ 0.225 µM); MIC (M. dispar NCTC 10125; [31]): 0.5 µg/mL (≈ 1.12 µM); MIC ([6]; R80/421A, 18 h): 100 µg/mL (≈ 225 µM); MIC [7, 22]: 2.5 µg/mL (≈ 5.62 µM); MIC [8, 13]: > 100 µg/mL; MIC (Strep. pneumoniae CN33; CN33, 18 h): 100 µg/mL (≈ 225 µM); MIC (K. aerogenes A; 18 h): > 100 µg/mL; MIC [9, 26]: 2.5 µg/mL (≈ 5.62 µM); MIC [10, 27]: 2.5 µg/mL (≈ 5.62 µM)
5 | CC(=Cc1nnc(-c2cccc([N+](=O)[O-])c2)o1)CC1OCC(CC2OC2C(C)C(C)O)C(O)C1O (centres unmarked) [Example 2, 2-m-Nitrophenyl-5-(1-normon-2-yl)-1,3,4-oxadiazole A] | 5 µg/mL (≈ 10.2 µM) | > 80 µg/mL | > 80 µg/mL | 10 µg/mL (≈ 20.4 µM) | > 80 µg/mL | > 80 µg/mL | 80 µg/mL (≈ 163 µM) | 5 µg/mL (≈ 10.2 µM) | 10 µg/mL (≈ 20.4 µM) |  |  |  | 20 µg/mL (≈ 40.9 µM) | 16 µg/mL (≈ 32.7 µM) | 4 µg/mL (≈ 8.17 µM) | 4 µg/mL (≈ 8.17 µM) | > 128 µg/mL | 32 µg/mL (≈ 65.4 µM) | > 128 µg/mL | 0.5 µg/mL (≈ 1.02 µM) | MIC (M. hyopneumoniae LABER; [29]): 0.025 µg/mL (≈ 0.0511 µM); MIC (M. hyopneumoniae TAM 6N): 0.05 µg/mL (≈ 0.102 µM); MIC [1, 30]: 0.025 µg/mL (≈ 0.0511 µM); MIC (M. dispar NCTC 10125; [31]): < 0.01 µg/mL; MIC (M. hyopneumoniae NB12; NB12, 144 h): 0.05 µg/mL (≈ 0.102 µM); MIC (M. hyopneumoniae HK (2)): 0.05 µg/mL (≈ 0.102 µM); MIC ([9]; Neisseria, 1502, 18 h): 0.5 µg/mL (≈ 1.02 µM); MIC [10, 14]: 0.5 µg/mL (≈ 1.02 µM)
